Read-outs that look alike come from different tables or passages of the source.
Legend:
[1] = system: general cellular transcription/translation (R-Luc); assay: Dual-reporter assay, R-Luc in bl-DTR cells; assay type: cell-based; settings: doxycycline, 24 h
Method: (§1) Fig 1 (A) (Top panel) Schematic representation of the primary compound screening using a dual-reporter system. […] (B). […] (Top graphs) bl-DTR cells (1 × 10^4) were treated with twofold serial dilutions of each compound before doxycycline (Dox) addition (final concentration, 50 ng/mL). After 24 h of treatment, the activities of firefly luciferase (F-Luc, red line) and Renilla luciferase (R-Luc, blue line) were determined using the Dual-Glo Luciferase assay system. (Bottom graphs) TZM-bl cells were treated with each indicated compound and subsequently infected with the HIV-1NL4-3 strain at a multiplicity of infection (MOI) of 1. At 48 h after infection, the viral infectivity (purple line) and cell viability (green line) were determined using the Bright-Glo luciferase assay kit and the PrestoBlue Cell Viability Reagent, respectively. […] (C). […] The targeted moieties for the SAR study are marked with dotted-circle lines.
(§2) The Tzm-bl-derived dual Tat reporter; TZM-bl/Tat/Rluc (bl-DTR) cells were established from TZM-bl cells using two Dox-inducible lentiviral expression cassettes cloned with Flag-tagged Tat86 and the R-Luc gene, as described in our previous study ([11]). TZM-bl, A3.01, J1.1, and J-Lat 6.3 cells as well as the HIV-1 molecular clone pNL4-3, pNL(AD8), ARV-resistant HIV-1 strains, and HIV-1NL43-IRES-eGFP (pBR43IeG-nef^+, gifted by Dr. Frank Kirchhoff) ([52]) were provided by the National Institute of Health HIV Reagent Program (NIH, Bethesda, MD, USA). HeLa (CCL-2) and 293T (CRL-3216) cell lines were purchased from the American Type Culture Collection (ATCC, Manassas, VA, USA). The bl-DTR, TZM-bl, HeLa, and 293T cells were cultured in Dulbecco’s modified Eagle’s medium supplemented with 1% penicillin–streptomycin and 10% (vol/vol) heat-inactivated fetal bovine serum (all from Gibco-BRL, Gaithersburg, MD, USA), and 1 µg/mL of puromycin and 200 µg/mL of zeocin were additionally supplemented for the bl-DTR cells. PBMCs were purchased from AllCells (Alameda, CA, USA) and cultured as previously described ([12]). The information on ARV-resistant HIV-1 strains was described in previous reports as follows: NNRTI-resistant 12241 and 12243 ([53]); NRTI-resistant 7396, 7406, and 7407 ([54]); INSTI-resistant 11847 and 11849 ([55], [56]); and PI-resistant 11800 and 11803 ([57]). Each molecular HIV-1 clone was transfected to 293T cells, as previously described ([58]), to obtain infectious HIV-1 particles. Virus-containing cell culture supernatants were collected 3 days after transfection, and filtered through a 0.45-µm membrane filter (Millipore Sigma, Burlington, MA, USA) to remove cell debris. The viral titration was performed as described previously ([59]) with some minor modifications. In brief, 1 × 10^4 TZM-bl cells seeded in 96-well plates were infected with 200 µL of virus-containing medium diluted serially twofold. The incubation was for 2 days and the experiment was performed in triplicate; the infection time minimized the virus spread ([59]). The titration of the infectious viral particles was performed with a ß-Gal staining assay using the ßeta-Galactosidase Staining Kit (Mirus Bio, Madison, WI, USA) following the manufacturer’s protocols. In brief, the infected cells were washed with phosphate-buffered saline (PBS) and fixed using a Cell Fixative Working solution. The cells were washed with PBS and stained using the Cell Staining Working Solution containing X-gal. The infected blue-colored cells were counted under a microscope (100× magnification). The infectious virus titer was determined as a mean value of blue-colored cells count × dilution factor and used for determining the multiplicity of infection (MOI) in each infection experiment.

TZM-bl cells = assay: Cell viability of TZM-bl cells (PrestoBlue); assay type: cell-based
Method: (§5) The TZM-bl cells (also referred to as JC53BL-13) expressing human CD4, CXCR4, and CCR5 carrying the F-Luc and lacZ genes downstream of the HIV-1 LTR promoter ([60]) were used to determine the inhibitory effect of the compounds on HIV-1 infection, as previously described ([11], [12], [61]). In brief, 1 × 10^4 cells were cultured in 96-well plates for 24 h and subsequently treated with compounds at the indicated concentrations. Without replacement of the culture medium, the cells were subsequently infected with the HIV-1NL4-3 wild-type or ARV-resistant HIV-1 strains at an MOI of 1 to determine the exact inhibitory effect of compounds on a single-round infection. After 48 h, the inhibitory effect of the compounds was determined using a Bright Glo luciferase assay kit (Promega) or β-Galactosidase Enzyme Assay kit (Promega). The infectivity data were presented as a percentage relative to the dimethyl sulfoxide (DMSO) control (vehicle). Cell viability was determined using the resazurin-based PrestoBlue Cell Viability Reagent (Thermo Fisher Scientific, Waltham, MA, USA) following the manufacturer’s instructions.

HIV-1NL4-3 [2] = assay: HIV-1 infectivity in TZM-bl cells (F-Luc); assay type: cell-based; settings: for EC50: read-out: EC50
Method: as §5

[3] = system: NNRTI-resistant HIV-1 strain 12243; assay: microbe, parasite or virus in culture; assay type: cell-based; settings: Human immunodeficiency virus 1, TZM-bl
Method: (§3) Fig 7 (A–C) TZM-bl cells (1 × 10^4 cells/well) cultured in a 96-well plate were treated with fivefold serial dilutions of the indicated compound or ARV for 1 h before infection with the HIV-1NL4-3 or ARV-resistant HIV-1 strains at an MOI of 1, respectively. At 48 h after infection, the EC50 values were determined using an F-Luc activity. The symbols represent the fold-change values of EC50 against each mutant virus relative to the wild-type (WT) virus. (D) PBMCs (5 × 10^4 cells/well) were infected with the HIV-1NL4-3 and PIs-resistant HIV-1 strain at an MOI of 0.1, respectively. Subsequently, the PBMCs were treated with 10-fold serial dilutions of the indicated compounds or PI. At 3 days after infection, the EC50 values on the viral replication were determined using a p24 […] assay kit. (E) The inhibitory kinetics for the WT and ARV-resistant viruses. TZM-bl cells infected with WT or ARV-resistant viruses were cultured upon fivefold serial dilutions of each compound for 2 days and the infectivity was determined using an F-Luc activity.
as §2

[4] = system: NNRTI-resistant HIV-1 strain 12241; assay: microbe, parasite or virus in culture; assay type: cell-based; settings: Human immunodeficiency virus 1, TZM-bl
Method: as §3, §2

[5] = system: proviral DNA integrated to the host chromosome; assay: Integrated proviral DNA, nested Alu-PCR in A3.01 cells; assay type: cell-based, HIV-1; settings: compounds 5 µM, 40 h after infection
Method: (§4) Fig 5 (A) Time-of-addition assay. […] Subsequently, the cells were treated with the compounds at the indicated time points (0, 1, 2, 4, 6, 8, 10, 12, 24, 30, 36, 42, and 48 h) after HIV-1 infection. The final concentrations of compounds are described in Materials and Methods. Viral activity according to the timing of drug addition was measured as F-Luc activity at 54 h after infection. The relative activities are represented as the mean ± SD (n = 3) compared with the activity observed 54 h post-infection. The relative time frames associated with each HIV-1 infection step are defined based on the time frame of susceptibility to the drug that blocks that particular infection step. […] At 16 h after infection, the viral reverse transcription (RT) product (viral cDNA) level was determined by quantitative real-time PCR (RT-qPCR) using gag and 18S rRNA primer sets and represented as the mean ± SD (n = 3) normalized against the amount of the 18S rRNA compared with the DMSO control. **P < 0.01 compared with the vehicle (DMSO). (C) An in vitro integrase (IN) assay was performed with 10 µM of the indicated compounds following the manufacturer’s protocol. **P < 0.01 compared with vehicle (DMSO). (D) A3.01 cells were infected with HIV-1 upon treatment with the indicated compounds (5 µM) and ARVs (EFV and DTG) as the experimental controls. At 40 h after infection, cellular chromosomal DNA was purified, and the integrated proviral DNA was detected through nested Alu-PCR amplification.
The activity of HIV-1 RT was determined as previously described with some minor modifications ([66][–][68]). In brief, HIV-1NL4-3 obtained from plasmid transfection was treated with DNase I (2.5 U/mL) for 2 h at 37°C to remove the plasmid DNA. […] Sixteen hours after infection, the cell cytosolic DNA was isolated under RNase A treatment, and the RT products (cytosolic viral cDNA) were quantified using RT-qPCR and the following primers: gag forward, 5′-[…]-3′, gag reverse, 5′-[…]-3′; 18S rRNA forward, 5′-[…]-3′, 18S rRNA reverse, 5′-[…]-3′. The relative levels of RT products were analyzed using the ΔΔCt-method, as described above. In vitro integrase activity was determined using an HIV-1 integrase assay kit (XpressBio, Frederick, MD, USA) as previously described ([12]). In brief, a 96-well plate coated with donor substrate DNA was blocked, and HIV-1 integrase was then added to the plate. Subsequently, the compounds and target substrate DNA were added to the plate and incubated for 30 min at 37°C. The plate was washed and subsequently incubated with horse radish peroxidase. Integrase activity was measured by the peroxidase activity with the substrate at an optical density of 450 nm. The experiment was performed in triplicates. Detection of integrated proviral DNA was performed as previously described ([69]) with some minor modifications. […] Chromosomal DNA was purified using the G-Spin DNA extraction kit (Intron Bio Tech, Seongnam-si, Gyeonggi-do, Republic of Korea). The integrated proviral HIV-1 DNA was detected by nested Alu-PCR amplification using the following primers: first round PCR, Alu forward, 5′-[…]-3′, pol reverse, 5′-[…]-3′; second round PCR, gag forward, 5′-[…]-3′, pol reverse. gapdh was used as the control gene.

HIV-1 transcripts = assay: RNA-seq of HIV-1 transcripts in infected TZM-bl cells; assay type: cell-based; settings: HIV-1NL4-3 MOI 1, 1.5 µM, 2 days
Method: At 48 h after infection, the total RNA was extracted using the Maxwell RSC simplyRNA Cells Kit (Promega) according to the manufacturer’s instructions. RNA integrity was evaluated as RNA integrity number >6 using the Agilent 2100 Bio-analyzer (Agilent Technologies, Santa Clara, CA, USA). The cDNA libraries were constructed using TruSeq Stranded mRNA Sample Preparation Kit (Illumina, San Diego, CA, USA) according to the manufacturer’s instructions. Subsequently, these cDNA libraries were sequenced on the Illumina sequencing platform (NovaSeq6000; Illumina) and 150 bp paired-end reads were generated. Trimmomatic (v.0.32) was used to eliminate low-quality reads and adapter sequences from the sequencing data ([64]). Subsequently, the filtered reads were aligned to the HIV-1 genome (accession: AF324493.2) using STAR (v.2.3.0) ([65]). RT-qPCR analyses were performed as previously described ([66]) with some minor modifications. […] After infection, the infected cells were treated with 1.5 µM of the compounds. Forty-eight hours after treatment, the viral mRNA was isolated, converted to cDNA, and quantified through RT-qPCR on a 7500 Real-Time PCR System (Applied Biosystems) using the Power SYBR Green PCR Master Mix (Applied Biosystems). The comparative cycle threshold (Ct) method was used to analyze relative changes (Δ) in gene expression. The ΔCt values were determined using a 7500 Real-Time PCR System Software (Applied Biosystems) normalizing with gapdh, and the gene expression was calculated using the ΔΔCt-method. The primers used in this assay are the following: gag forward, 5′-[…]-3′, gag reverse, 5′-[…]-3′; gapdh forward, 5′-[…]-3′, gapdh reverse, 5′-[…]-3′.

[6] = system: HIV-1NL4-3 IRES-eGFP-nef+; assay: eGFP-encoding HIV-1 infection of TZM-bl cells; assay type: cell-based; settings: 9, 10, 13 1.5 μM, 20, 21, 22 4 μM, seliciclib 10 µM, triptolide 5 nM, DTG 2 nM, EFV 2 nM, 2 days
HIV-1NL4-3 [7] = assay: Time-of-addition assay in TZM-bl cells; assay type: cell-based; settings: HIV-1NL4-3 MOI 1, 9 and 13 1.5 μM, T-20 1 µM, triptolide 5 nM, ARVs 1 µM, F-Luc at 54 h
Method: as §4
A time-of-addition assay was performed as previously described ([25]) with minor modifications. […] Reference drug and test compounds were subsequently added at the indicated time (0, 1, 2, 4, 6, 8, 10, 12, 24, 30, 36, 42, and 48 h after infection). Final concentrations were as follows: compounds 9 and 13 (1.5 μM), T-20 (1 µM), Triptolide (5 nM), and ARVs (AZT, EFV, DTG, RAL) (1 µM). The viral activity according to the timing of drug addition was measured using a Bright Glo luciferase assay kit (Promega). Virus activity curves present a % activity relative to the activity observed at 54 h after infection, and the data are presented as the mean ± standard deviation (SD) (n = 3). The relative time frame associated with each HIV-1 infection step was defined based on the sensitivity to each drug that blocks a particular infection step.

[8] = system: INSTI-resistant HIV-1 strain 11847; assay: microbe, parasite or virus in culture; assay type: cell-based; settings: Human immunodeficiency virus 1, TZM-bl
Method: as §3, §2

[9] = system: INSTI-resistant HIV-1 strain 11849; assay: microbe, parasite or virus in culture; assay type: cell-based; settings: Human immunodeficiency virus 1, TZM-bl
Method: as §3, §2

[10] = system: Tat-mediated LTR transcription; assay: Dual-reporter assay, F-Luc (Tat-mediated LTR transcription) in bl-DTR cells; assay type: cell-based, HIV-1; settings: bl-DTR cells, doxycycline 50 ng/mL, 24 h; mean ± SD; read-out: IC50 of F-Luc (Tat)
Method: as §1, §2

Molecule: Cc1[nH]c2ccc(-c3nnc(SC(C)C(=O)N4CCCC4)n3CCc3ccccc3)cc2c1C (centres unmarked) [Compound 32, 2-((5-(2,3-Dimethyl-1H-indol-5-yl)-4-phenethyl-4H-1,2,4-triazol-3-yl)thio)-1-(pyrrolidin-1-yl)propan-1-one]
- Relative R-Luc activity at IC50 of F-Luc [1]: 90
- CC50 (TZM-bl cells; human, 48 h): 63.20 ± 2.65 µM

Molecule: Cc1ccnc2c1NC(=O)c1cccnc1N2C1CC1 [NVP, nevirapine, reference compound]
- EC50 (HIV-1NL4-3 [2]; Human immunodeficiency virus 1, TZM-bl, 48 h, Table S1, WT virus, TZM-bl, fivefold serial dilutions, MOI 1, 48 h): 0.06 µM
- EC50 [3]: 23.9 ± 2.3 µM
- EC50 [4]: > 100 µM

Molecule: Cc1[nH]c2ccc(-c3nnc(S(=O)(=O)C(C)C(=O)N4CCCC4)o3)cc2c1C (centres unmarked) [Compound 21, 2-((5-(2,3-Dimethyl-1H-indol-5-yl)-1,3,4-oxadiazol-2-yl)sulfonyl)-1-(pyrrolidin-1-yl)propan-1-one]
- nested Alu-PCR band for integrated proviral DNA [5]: observed
- read counts of transcripts mapped to the HIV-1 genome (HIV-1 transcripts): not observed
- inhibition of viral-expressed eGFP signal [6]: did not

Molecule: Cc1nnc(C(=O)NC(C)(C)c2nc(C(=O)NCc3ccc(F)cc3)c(O)c(=O)n2C)o1 [RAL, raltegravir, reference compound]
- EC50 (HIV-1NL4-3 [2]; Human immunodeficiency virus 1, TZM-bl, Table S1, WT virus, TZM-bl): < 0.001 µM
- time of administration after infection at which effectiveness began to decrease / was lost (HIV-1NL4-3 [7]): 10 h
- EC50 [8]: 4.99 ± 0.2 µM
- EC50 [9]: 14.3 ± 2.59 µM

Molecule: 5-(2,3-Dimethyl-1H-indol-5-yl)-4-phenethyl-4H-1,2,4-triazole-3-thiol [Compound 29]
- Relative R-Luc activity at IC50 of F-Luc [1]: 90
- IC50 [10]: 0.43 ± 0.03 µM
- SI (CC50/EC50) (HIV-1NL4-3 [2]; TZM-bl cells): 164.33
- EC50 (HIV-1NL4-3 [2]; TZM-bl cells infected with HIV-1NL4-3 at MOI 1, 48 h, F-Luc, mean ± SD): 0.39 ± 0.03 µM
- CC50 (TZM-bl cells; TZM-bl cells, absence of HIV-1 infection, mean ± SD, read-out: CC50): 64.1 ± 6.31 µM

— publication PMC11459959, “Discovery of new acetamide derivatives of 5-indole-1,3,4-oxadiazol-2-thiol as inhibitors of HIV-1 Tat-mediated viral transcription” (Antimicrobial Agents and Chemotherapy, 2024)
